This passage reports inhibition results from US12528802B2, “Heterocyclic compound” (Takeda Pharmaceutical Company Limited, priority 2019, dated 2026).

The target in this assay is T1, glucosylceramide synthase (Homo sapiens, UniProt Q16739).
T1 construct: made in house; host or cells: Expi293F cells (transient expression, pcDNA3.3-TOPO vector); microsome fraction used as enzyme source
T1 sequence (Q16739 1-394): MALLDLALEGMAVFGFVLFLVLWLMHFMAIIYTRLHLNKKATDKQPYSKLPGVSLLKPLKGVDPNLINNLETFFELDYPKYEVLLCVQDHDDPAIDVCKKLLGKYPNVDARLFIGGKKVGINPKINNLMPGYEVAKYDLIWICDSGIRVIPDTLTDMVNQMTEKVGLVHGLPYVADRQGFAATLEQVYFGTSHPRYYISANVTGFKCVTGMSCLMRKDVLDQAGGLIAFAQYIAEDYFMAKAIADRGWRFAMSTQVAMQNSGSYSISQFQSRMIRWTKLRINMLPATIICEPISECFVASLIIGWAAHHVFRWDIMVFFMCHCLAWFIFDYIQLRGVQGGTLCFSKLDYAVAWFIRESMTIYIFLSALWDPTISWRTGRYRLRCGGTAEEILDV
Put plainly: Glucosylceramide synthase (GCS) enzyme assay, microsome fraction, C8 glucosylceramide quantified by Rapidfire MS/MS. Particulars: test compound 10 μM; 1.7 μM UDP-glucose, 3 μM C8 ceramide; room temperature 60 min; read-out: GCS enzyme inhibitory rate at 10 μM (%) (% of control). It is filed as biochemical. The essentials:
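Test compound, 10 μM final, was run against human GCS from transfected Expi293F microsome fractions, using substrate solution of 6 μM C8 ceramide (in DOPC liposomes) plus 3.4 μM UDP-glucose, pH 7.5 Tris buffer, 60 min, room temperature. Product C8 glucosylceramide measured by Rapidfire MS/MS against an internal standard, % inhibition referenced to no-enzyme and DMSO wells.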
As to `O=C1c2ccnc(-c3ccc(F)cc3OCC(F)(F)F)c2CN1c1ccc(C2(O)COC2)cc1` [Example 155, 4-[4-fluoro-2-(2,2,2-trifluoroethoxy)phenyl]-2-[4-(3-hydroxyoxetan-3-yl)phenyl]-2,3-dihydro-1H-pyrrolo[3,4-c]pyridin-1-one], the inhibition at 10 µM was determined as 93%.

In the case of `N#Cc1ccc(N2Cc3ccnc(-c4ccc(F)cc4OCC(F)(F)F)c3C2)nc1` [Example 156, 6-{4-[4-fluoro-2-(2,2,2-trifluoroethoxy)phenyl]-1,3-dihydro-2H-pyrrolo[3,4-c]pyridin-2-yl}pyridine-3-carbonitrile], the inhibition at 10 µM was determined as 94%.

With `CCS(=O)(=O)c1ccc(N2Cc3c(ccnc3-c3ccccc3OCC(F)(F)F)C2=O)cc1` [Example 160, 2-[4-(ethanesulfonyl)phenyl]-4-[2-(2,2,2-trifluoroethoxy)phenyl]-2,3-dihydro-1H-pyrrolo[3,4-c]pyridin-1-one], the inhibition at 10 µM turned out to be 99%.

Regarding `CS(=O)(=O)c1ccc(N2Cc3c(ccnc3-c3ccccc3OCC(F)(F)F)C2=O)cc1` [Example 161, 2-[4-(methanesulfonyl)phenyl]-4-[2-(2,2,2-trifluoroethoxy)phenyl]-2,3-dihydro-1H-pyrrolo[3,4-c]pyridin-1-one], the inhibition at 10 µM turned out to be 98%. For `CN(C)C(=O)c1ccc(N2Cc3c(ccnc3-c3ccccc3OCC(F)(F)F)C2=O)cc1` [Example 162, N,N-dimethyl-4-{1-oxo-4-[2-(2,2,2-trifluoroethoxy)phenyl]-1,3-dihydro-2H-pyrrolo[3,4-c]pyridin-2-yl}benzamide], the inhibition at 10 µM was 95%. Take `O=C1c2ccnc(-c3ccc(F)cc3OCC(F)(F)F)c2CN1c1ccc(C2(O)CCC2)cc1` [Example 163, 4-[4-fluoro-2-(2,2,2-trifluoroethoxy)phenyl]-2-[4-(1-hydroxycyclobutyl)phenyl]-2,3-dihydro-1H-pyrrolo[3,4-c]pyridin-1-one]: the inhibition at 10 µM came to 100%. As to `O=C1c2ccnc(-c3ccc(F)cc3OCC(F)(F)F)c2CN1c1ccc(O[C@@H]2CCOC2)cc1` [Example 164, 4-[4-fluoro-2-(2,2,2-trifluoroethoxy)phenyl]-2-(4-{[(3R)-oxolan-3-yl]oxy}phenyl)-2,3-dihydro-1H-pyrrolo[3,4-c]pyridin-1-one], the inhibition at 10 µM worked out at 99%.

Turning to `O=C1c2ccnc(-c3ccc(F)cc3OCC(F)(F)F)c2CN1c1ccc(O[C@H]2CCOC2)cc1` [Example 165, 4-[4-fluoro-2-(2,2,2-trifluoroethoxy)phenyl]-2-(4-{[(3S)-oxolan-3-yl]oxy}phenyl)-2,3-dihydro-1H-pyrrolo[3,4-c]pyridin-1-one], the inhibition at 10 µM came out at 98%. The value for `O=C(c1ccc(N2Cc3c(ccnc3-c3ccc(F)cc3OCC(F)(F)F)C2=O)cc1)N1CCC1` [Example 166, 2-[4-(azetidine-1-carbonyl)phenyl]-4-[4-fluoro-2-(2,2,2-trifluoroethoxy)phenyl]-2,3-dihydro-1H-pyrrolo[3,4-c]pyridin-1-one] was 87%; that for `O=C1c2ccnc(-c3ccc(F)cc3OCC(F)(F)F)c2CN1c1ccc(OC2CCOCC2)nc1` [Example 167, 4-[4-fluoro-2-(2,2,2-trifluoroethoxy)phenyl]-2-{6-[(oxan-4-yl)oxy]pyridin-3-yl}-2,3-dihydro-1H-pyrrolo[3,4-c]pyridin-1-one] was 98%. `Fc1ccc(N2Cc3ccnc(-c4ccccc4OCC(F)(F)F)c3C2)cc1` [Example 168, 2-(4-fluorophenyl)-4-[2-(2,2,2-trifluoroethoxy)phenyl]-2,3-dihydro-1H-pyrrolo[3,4-c]pyridine]: the inhibition at 10 µM was 100%. `Fc1ccc(N2Cc3ccnc(-c4ccc(F)cc4OCC(F)(F)F)c3C2)nc1` [Example 169, 2-(5-fluoropyridin-2-yl)-4-[4-fluoro-2-(2,2,2-trifIuoroethoxy)phenyl]-2,3-dihydro-1H-pyrrolo[3,4-c]pyridine]: the inhibition at 10 µM was 95%. Consider `COc1cnccc1-c1nccc2c1CN(c1ccc(F)cc1)C2` [Example 170, 2-(4-fluorophenyl)-4-(3-methoxypyridin-4-yl)-2,3-dihydro-1H-pyrrolo[3,4-c]pyridine], for which the inhibition at 10 µM was found to be 88%. The value for `CC(C)(C#N)COc1cc(F)ccc1-c1nccc2c1CN(c1ccc(OC(F)F)nc1)C2=O` [Example 171, 3-(2-{2-[6-(difluoromethoxy)pyridin-3-yl]-1-oxo-2,3-dihydro-1H-pyrrolo[3,4-c]pyridin-4-yl}-5-fluorophenoxy)-2,2-dimethylpropanenitrile] was 52%. The value for `COc1ccccc1-c1nccc2c1CN(c1ccc(F)cc1)C2` [Example 172, 2-(4-fluorophenyl)-4-(2-methoxyphenyl)-2,3-dihydro-1H-pyrrolo[3,4-c]pyridine] was 91%; that for `O=C1c2ccnc(-c3ccc(F)cc3OCCOC(F)(F)F)c2CN1c1ccc(OC(F)F)nc1` [Example 174, 2-[6-(difluoromethoxy)pyridin-3-yl]-4-{4-fluoro-2-[2-(trifluoromethoxy)ethoxy]phenyl}-2,3-dihydro-1H-pyrrolo[3,4-c]pyridin-1-one] was 99%. The same measure for `Cc1cncc(OCC(F)(F)F)c1-c1nccc2c1CN(c1ccc(OC(F)F)cc1)C2=O` [Example 175, 2-[4-(difluoromethoxy)phenyl]-4-[3-methyl-5-(2,2,2-trifluoroethoxy)pyridin-4-yl]-2,3-dihydro-1H-pyrrolo[3,4-c]pyridin-1-one ditrifluoroacetate]: 100%; for `O=C1C2=C(CN1c1ccc(OCC(F)(F)F)cc1)C(c1ccc(F)cc1OCC(F)(F)F)=NCCN2` [Example 176, 5-[4-fluoro-2-(2,2,2-trifluoroethoxy)phenyl]-7-[4-(2,2,2-trifluoroethoxy)phenyl]-2,3,6,7-tetrahydropyrrolo[3,4-e][1,4]diazepin-8(1H)-one]: 100%; for `O=C1c2ccnc(-c3ccc(F)cc3OCC(F)(F)F)c2CN1c1ccc(N2CCOCC2)nc1` [Example 177, 4-[4-fluoro-2-(2,2,2-trifluoroethoxy)phenyl]-2-[6-(morpholin-4-yl)pyridin-3-yl]-2,3-dihydro-1H-pyrrolo[3,4-c]pyridin-1-one]: 98%. For the compound `COC1(c2ccc(N3Cc4c(ccnc4-c4ccc(F)cc4OCC(F)(F)F)C3=O)cc2)COC1` [Example 178, 4-[4-fluoro-2-(2,2,2-trifluoroethoxy)phenyl]-2-[4-(3-methoxyoxetan-3-yl)phenyl]-2,3-dihydro-1H-pyrrolo[3,4-c]pyridin-1-one], the inhibition at 10 µM turned out to be 98%. The value for `CN1CCN=C(c2ccc(F)cc2OCC(F)(F)F)C2=C1C(=O)N(c1ccc(OCC(F)(F)F)cc1)C2` [Example 179, 5-[4-fluoro-2-(2,2,2-trifluoroethoxy)phenyl]-1-methyl-7-[4-(2,2,2-trifluoroethoxy)phenyl]-2,3,6,7-tetrahydropyrrolo[3,4-e][1,4]diazepin-8(1H)-one] was 91%; that for `O=C(c1ccc(N2Cc3c(ccnc3-c3ccc(F)cc3OCC(F)(F)F)C2=O)cc1)N1CCCC1` [Example 180, 4-[4-fluoro-2-(2,2,2-trifluoroethoxy)phenyl]-2-[4-(pyrrolidine-1-carbonyl)phenyl]-2,3-dihydro-1H-pyrrolo[3,4-c]pyridin-1-one] was 92%.
